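Following 48 hours of exposure in 96-well plates, responses at five concentrations were used to interpolate endpoints linearly. TGI denotes the concentration required for complete inhibition of growth.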
Key:
Experiment in all cases: NCI anticancer screen, dose series, 48 h
M14 melanoma = test system: M14 melanoma
OVCAR-4 ovarian = test system: OVCAR-4 ovarian
UACC-62 melanoma = test system: UACC-62 melanoma
HL-60(TB) leukemia = test system: HL-60(TB) leukemia
UACC-257 melanoma = test system: UACC-257 melanoma
TK-10 renal = test system: TK-10 renal
OVCAR-5 ovarian = test system: OVCAR-5 ovarian
BT-549 breast = test system: BT-549 breast
RPMI-8226 leukemia = test system: RPMI-8226 leukemia
CAKI-1 renal = test system: CAKI-1 renal
NCI-H226 lung = test system: NCI-H226 lung
CCRF-CEM leukemia = test system: CCRF-CEM leukemia
NCI-H522 lung = test system: NCI-H522 lung
T-47D breast = test system: T-47D breast
SR leukemia = test system: SR leukemia
K-562 leukemia = test system: K-562 leukemia
A498 renal = test system: A498 renal
HCT-116 colon = test system: HCT-116 colon
SNB-75 CNS = test system: SNB-75 CNS
SK-MEL-5 melanoma = test system: SK-MEL-5 melanoma
HCT-15 colon = test system: HCT-15 colon
A549 NSCLC = test system: A549 NSCLC
SF-268 CNS = test system: SF-268 CNS
HOP-92 NSCLC = test system: HOP-92 NSCLC
LOX IMVI melanoma = test system: LOX IMVI melanoma
IGROV1 ovarian = test system: IGROV1 ovarian
MDA-MB-231 breast = test system: MDA-MB-231 breast
RXF 393 renal = test system: RXF 393 renal
KM12 colon = test system: KM12 colon
SW-620 colon = test system: SW-620 colon
MDA-N = test system: MDA-N
DU-145 prostate = test system: DU-145 prostate
786-0 renal = test system: 786-0 renal
HCC-2998 colon = test system: HCC-2998 colon
HOP-62 NSCLC = test system: HOP-62 NSCLC
ACHN renal = test system: ACHN renal
SF-539 CNS = test system: SF-539 CNS
SF-295 CNS = test system: SF-295 CNS
NCI-H460 lung = test system: NCI-H460 lung
SNB-19 CNS = test system: SNB-19 CNS
OVCAR-8 ovarian = test system: OVCAR-8 ovarian
SK-MEL-28 melanoma = test system: SK-MEL-28 melanoma
PC-3 prostate = test system: PC-3 prostate
MOLT-4 leukemia = test system: MOLT-4 leukemia
OVCAR-3 ovarian = test system: OVCAR-3 ovarian
SN12C renal = test system: SN12C renal
NCI-H23 lung = test system: NCI-H23 lung
UO-31 renal = test system: UO-31 renal
EKVX NSCLC = test system: EKVX NSCLC
HT29 colon = test system: HT29 colon
MALME-3M melanoma = test system: MALME-3M melanoma
SK-MEL-2 melanoma = test system: SK-MEL-2 melanoma
NCI/ADR-RES ovarian = test system: NCI/ADR-RES ovarian
COLO 205 colon = test system: COLO 205 colon
HS 578T breast = test system: HS 578T breast
MDA-MB-435 = test system: MDA-MB-435
MCF7 breast = test system: MCF7 breast
U251 CNS = test system: U251 CNS

Measured: TGI

Cc1cc(C)c2c(c1)C/C(=C\c1cccc(C)c1C(=O)O)C2=O
not listed: NCI/ADR-RES ovarian | COLO 205 colon | HS 578T breast | MDA-MB-435 | MCF7 breast | U251 CNS
> 100 µM: all other assays above

CCc1ccc2oc(=O)ccc2c1
not listed: TK-10 renal | T-47D breast | MDA-MB-231 breast | DU-145 prostate
> 100 µM: all other assays above

Reference: PubChem BioAssay (NCI)
